US20250154138A1, “Small Molecule IL-17A Modulators” (BeiGene, Ltd., priority 2022, published 2025)

Target: human IL-17A / human IL-17RA (Homo sapiens (Human), UniProt Q16552)
Test: Human IL-17A biochemical assay (HTRF, blocking of IL-17A binding to IL-17RA)
Conditions: 0.4 nM IL-17A, 0.3 nM IL-17RA, max compound concentration 10 uM
Experimental: Compounds disclosed herein were tested for blocking of human IL-17A (Cat: C774, novoprotein) protein with its receptor human IL-17RA (Cat: C153, novoprotein) in an assay based on Homogeneous Time Resolved Fluorescence. 0.4 nM recombinant human IL-17A protein was pre-incubated with a serial dilution of compounds disclosed herein (maximum concentration is 10 uM, 2.7-fold serially diluted, 10 points) at room temperature for 3 hours in an assay buffer containing 20 mM HEPES, pH 7.5, 50 mM NaCl, 0.1% BSA, 0.2 mM DTT, 0.005% Tween 20. Then 0.3 nM recombinant human IL-17RA was added to plate and further incubated at room temperature for 1 hour. After that Mab Anti-6His Tb cryptate Gold (Cat: 61HI2TLB, Cisbio Bioassays) and MAb Anti Human IgG-XL665 (Cat: 61HFCXLB, Cisbio Bioassays) were added to plate and further incubated at room temperature for 1 hour. The HTRF signals (ex337 nm, em620 nm/665 nm) were read on BMG PHERAstar FSX instrument. The inhibition percentage of human IL-17A interaction with its receptor human IL-17RA in presence of increasing concentrations of compounds was calculated based on the ratio of […]. The IC50 for each compound was derived from fitting the data to the four-parameter logistic equation by Dotmatics.

human IL-17A / human IL-17RA, sequence (Q16552 24-155): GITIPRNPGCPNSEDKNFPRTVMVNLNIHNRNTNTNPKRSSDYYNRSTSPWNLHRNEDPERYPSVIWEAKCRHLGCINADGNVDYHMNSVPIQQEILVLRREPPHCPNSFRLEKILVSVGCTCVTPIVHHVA

| SMILES | IC50 |
| --- | --- |
| CNC(=O)C1Cc2ccc(NC(=O)[C@@H](NC(=O)c3ccnn3C)C3CCCCC3)cc2C1 (stereo partly drawn) [Example 4, N-((1S)-1-cyclohexyl-2-((2-(methylcarbamoyl)-2,3-dihydro-1H-inden-5-yl)amino)-2-oxoethyl)-1-methyl-1H-pyrazole-5-carboxamide] | > 10 µM |
| CNC(=O)C1(N2CC(C)NC2=O)COc2ccc(NC(=O)[C@@H](NC(=O)c3ccnn3C)C3CCCCC3)cc2OC1 (stereo partly drawn) [Example 6, N-((1S)-1-cyclohexyl-2-((3-(4-methyl-2-oxoimidazolidin-1-yl)-3-(methylcarbamoyl)-3,4-dihydro-2H-benzo[b][1,4]dioxepin-7-yl)amino)-2-oxoethyl)-1-methyl-1H-pyrazole-5-carboxamide] | 17 µM |
| CNC(=O)C1(N2CC(C)NC2=O)CCc2ccc(NC(=O)[C@@H](NC(=O)c3ccnn3C)C3CCCCC3)cc2CC1 (stereo partly drawn) [Example 7, N-((1S)-1-cyclohexyl-2-((7-(4-methyl-2-oxoimidazolidin-1-yl)-7-(methylcarbamoyl)-6,7,8,9-tetrahydro-5H-benzo[7]annulen-2-yl)amino)-2-oxoethyl)-1-methyl-1H-pyrazole-5-carboxamide] | 51 µM |
| CNC(=O)C1(N2CC(C)NC2=O)CCc2cc(NC(=O)[C@@H](NC(=O)c3ccnn3C)C3CCCCC3)ccc21 (stereo partly drawn) [Example 8, N-((1S)-1-cyclohexyl-2-((1-(4-methyl-2-oxoimidazolidin-1-yl)-1-(methylcarbamoyl)-2,3-dihydro-1H-inden-5-yl)amino)-2-oxoethyl)-1-methyl-1H-pyrazole-5-carboxamide] | > 10 µM |
| CNC(=O)C1(N2CC(C)NC2=O)CCc2ccc(NC(=O)[C@@H](NC(=O)c3ccnn3C)C3CCCCC3)cc2C1 (stereo partly drawn) [Example 10, N-((1S)-1-cyclohexyl-2-((7-(4-methyl-2-oxoimidazolidin-1-yl)-7-(methylcarbamoyl)-5,6,7,8-tetrahydronaphthalen-2-yl)amino)-2-oxoethyl)-1-methyl-1H-pyrazole-5-carboxamide] | 19 µM |
| CNC(=O)C1(N2CC(C)NC2=O)Cc2ccc(NC(=O)[C@H](CC3CCCCC3)NC(=O)c3ccnn3C)cc2C1 (stereo partly drawn) [Example 16, N-((2S)-3-cyclohexyl-1-((2-(4-methyl-2-oxoimidazolidin-1-yl)-2-(methylcarbamoyl)-2,3-dihydro-1H-inden-5-yl)amino)-1-oxopropan-2-yl)-1-methyl-1H-pyrazole-5-carboxamide] | 5 µM |
| CC1CN(CC2Cc3ccc(NC(=O)[C@@H](NC(=O)c4ccnn4C)C4CCCCC4)cc3O2)C(=O)N1 (stereo partly drawn) [Example 21, N-((1S)-1-cyclohexyl-2-((2-((4-methyl-2-oxoimidazolidin-1-yl)methyl)-2,3-dihydrobenzofuran-6-yl)amino)-2-oxoethyl)-1-methyl-1H-pyrazole-5-carboxamide] | 2.4 µM |
| CNC(=O)C1(N2CC(CC(C)C)NC2=O)Cc2ccc(NC(=O)[C@@H](NC(=O)c3ccnn3C)C3CCCCC3)cc2C1 (stereo partly drawn) [Example 24, N-((1S)-1-cyclohexyl-2-((2-(4-isobutyl-2-oxoimidazolidin-1-yl)-2-(methylcarbamoyl)-2,3-dihydro-1H-inden-5-yl)amino)-2-oxoethyl)-1-methyl-1H-pyrazole-5-carboxamide] | 2.34 µM |
| CNC(=O)C1(N2C[C@@H](C3CCCCC3)NC2=O)Cc2ccc(NC(=O)[C@@H](NC(=O)c3ccnn3C)C3CCCCC3)cc2C1 (stereo partly drawn) [Example 25, N-((1S)-1-cyclohexyl-2-((2-((R)-4-cyclohexyl-2-oxoimidazolidin-1-yl)-2-(methylcarbamoyl)-2,3-dihydro-1H-inden-5-yl)amino)-2-oxoethyl)-1-methyl-1H-pyrazole-5-carboxamide] | 6.3 µM |
| CC[C@H]1CN(C2(C(=O)NC)Cc3cc4nc([C@@H](NC(=O)c5nonc5C)C5CCCCC5)[nH]c4cc3C2)C(=O)N1 [Example 33, N-((1S)-cyclohexyl(6-((S)-4-ethyl-2-oxoimidazolidin-1-yl)-6-(methylcarbamoyl)-1,5,6,7-tetrahydroindeno[5,6-d]imidazol-2-yl)methyl)-4-methyl-1,2,5-oxadiazole-3-carboxamide] | 2.04 µM |
